System: cell line U937
Experiment: Optimization of glycan oxidation conditions, cell viability by trypan blue staining
Format: cell-based
Method: Method 2: Conditions for biocompatible oxime ligation and ^89Zr-labeling of monocytes. Reactive aldehydes were generated on the cell surface of the monocytic cell line U937 through sialic acid oxidation with NaIO4. Oxidation conditions were optimized by varying NaIO4 concentration (0.1-10 mM), pH (4.6-7.4), temperature (4 or 37° C.), and incubation time (15 min to 2 h). Subsequently, cells were incubated with AOD (100-500 μM) at room temperature for up to 1 h in the presence of aniline, and cells were washed and resuspended in PBS. Next, AOD-conjugated (5-7×10^6) cells were radiolabeled with ^89Zr (37-74 MBq) at room temperature for 1h, then washed thrice to eliminate unlabeled ^89Zr, and the radiochemical yield was measured by TLC (FIG. 9A-9D). Cell viability was assessed at each step via trypan blue staining (FIG. 8).

[Na+].[O-][I+3]([O-])([O-])[O-] [sodium periodate]
viability of U937 cells after oxidation (1 mM, up to 1 hour): over 90%
effect of glycan oxidation on cell viability, in words (tested temperature and reaction times): minimal effect on cell viability

Reference: patent US20250082797A1, “Methods for In Vivo Tracking of Cells” (Wisconsin Alumni Research Foundation, priority 2023, published 2025)
